Source: the supplement of paper PMC10307832

Columns and labels:
Experiment in all cases: relative viability (nuclei count vs DMSO), 5 days (fraction); higher = more cells survive
NCI-H2228 = test system: NCI-H2228
Method in brief: (§1)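 Cells from lung cancer lines were seeded into 1536-well plates and, one day later, dosed by pin tool. Treatments were either a single drug or a fixed dose of an anchor drug with five library-drug doses (not always all listed) in √10 steps. After 5 days, nuclei were stained in a one-step fixation (final 0.05% Triton X-100, 1% formaldehyde, 1 ug/ml Hoechst) and counted on 4× images, and relative viability is the treated-to-vehicle nuclei ratio, as the median of duplicate plates.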

EMC-BAC-2 = test system: EMC-BAC-2
Method in brief: as §1

NCI-H1944 = test system: NCI-H1944
Method in brief: as §1

A-427 = test system: A-427
Method in brief: as §1

NCI-H2170 = test system: NCI-H2170
Method in brief: as §1

NCI-H2009 = test system: NCI-H2009
Method in brief: as §1

PC-3 [JPC-3] = test system: PC-3 [JPC-3]
Method in brief: as §1

NCI-H596 = test system: NCI-H596
Method in brief: as §1

HOP-62 = test system: HOP-62
Method in brief: as §1

NCI-H1792 = test system: NCI-H1792
Method in brief: as §1

LK-2 = test system: LK-2
Method in brief: as §1

HARA = test system: HARA
Method in brief: as §1

LXF-289 = test system: LXF-289
Method in brief: as §1

NCI-H322M = test system: NCI-H322M
Method in brief: as §1

NCI-H3122 = test system: NCI-H3122
Method in brief: as §1

ABC-1 = test system: ABC-1
Method in brief: as §1

SK-MES-1 = test system: SK-MES-1
Method in brief: as §1

NCI-H727 = test system: NCI-H727
Method in brief: as §1

NCI-H1993 = test system: NCI-H1993
Method in brief: as §1

SW 1573 = test system: SW 1573
Method in brief: as §1

SMILES: CCN(CC)CCCCNc1ncc2cc(-c3cc(OC)cc(OC)c3)c(NC(=O)NC(C)(C)C)nc2n1 + Cc1nc(NC(=O)N2CCC[C@H]2C(N)=O)sc1-c1ccnc(C(C)(C)C(F)(F)F)c1 [Alpelisib] (partner 2 µM)
- relative viability (NCI-H2228; first compound 0.01 µM): 0.796
- relative viability (NCI-H2228; first compound 0.03162 µM): 0.755
- relative viability (NCI-H2228; first compound 0.1 µM): 0.913
- relative viability (NCI-H2228; first compound 0.3162 µM): 0.672
- relative viability (NCI-H2228; first compound 1 µM): 0.469
- relative viability (EMC-BAC-2; first compound 0.01 µM): 0.731
- relative viability (EMC-BAC-2; first compound 0.03162 µM): 0.798
- relative viability (EMC-BAC-2; first compound 0.1 µM): 0.811
- relative viability (EMC-BAC-2; first compound 0.3162 µM): 0.804
- relative viability (EMC-BAC-2; first compound 1 µM): 0.688
- relative viability (NCI-H1944; first compound 0.01 µM): 0.884
- relative viability (NCI-H1944; first compound 0.03162 µM): 0.842
- relative viability (NCI-H1944; first compound 0.1 µM): 0.89
- relative viability (NCI-H1944; first compound 0.3162 µM): 0.95
- relative viability (NCI-H1944; first compound 1 µM): 0.799
- relative viability (A-427; first compound 0.01 µM): 1.08
- relative viability (A-427; first compound 0.03162 µM): 1.08
- relative viability (A-427; first compound 0.1 µM): 1.1
- relative viability (A-427; first compound 0.3162 µM): 1.1
- relative viability (A-427; first compound 1 µM): 0.903
- relative viability (NCI-H2170; first compound 0.01 µM): 0.92
- relative viability (NCI-H2170; first compound 0.03162 µM): 0.822
- relative viability (NCI-H2170; first compound 0.1 µM): 0.831
- relative viability (NCI-H2170; first compound 0.3162 µM): 0.894
- relative viability (NCI-H2170; first compound 1 µM): 0.807
- relative viability (NCI-H2009; first compound 0.01 µM): 1.15
- relative viability (NCI-H2009; first compound 0.03162 µM): 1.14
- relative viability (NCI-H2009; first compound 0.1 µM): 1.24
- relative viability (NCI-H2009; first compound 0.3162 µM): 1.18
- relative viability (NCI-H2009; first compound 1 µM): 1.16
- relative viability (PC-3 [JPC-3]; first compound 0.01 µM): 1.03
- relative viability (PC-3 [JPC-3]; first compound 0.03162 µM): 1.02
- relative viability (PC-3 [JPC-3]; first compound 0.1 µM): 0.99
- relative viability (PC-3 [JPC-3]; first compound 0.3162 µM): 1.05
- relative viability (PC-3 [JPC-3]; first compound 1 µM): 1.07
- relative viability (NCI-H596; first compound 0.01 µM): 0.528
- relative viability (NCI-H596; first compound 0.03162 µM): 0.48
- relative viability (NCI-H596; first compound 0.1 µM): 0.478
- relative viability (NCI-H596; first compound 0.3162 µM): 0.549
- relative viability (NCI-H596; first compound 1 µM): 0.368
- relative viability (HOP-62; first compound 0.01 µM): 0.82
- relative viability (HOP-62; first compound 0.03162 µM): 1.1
- relative viability (HOP-62; first compound 0.1 µM): 0.89
- relative viability (HOP-62; first compound 0.3162 µM): 1.04
- relative viability (HOP-62; first compound 1 µM): 0.726
- relative viability (NCI-H1792; first compound 0.01 µM): 0.797
- relative viability (NCI-H1792; first compound 0.03162 µM): 0.674
- relative viability (NCI-H1792; first compound 0.1 µM): 0.51
- relative viability (NCI-H1792; first compound 0.3162 µM): 0.766
- relative viability (NCI-H1792; first compound 1 µM): 0.563
- relative viability (LK-2; first compound 0.01 µM): 0.679
- relative viability (LK-2; first compound 0.03162 µM): 0.891
- relative viability (LK-2; first compound 0.1 µM): 0.848
- relative viability (LK-2; first compound 0.3162 µM): 0.6
- relative viability (LK-2; first compound 1 µM): 0.301
- relative viability (HARA; first compound 0.01 µM): 1.06
- relative viability (HARA; first compound 0.03162 µM): 0.872
- relative viability (HARA; first compound 0.1 µM): 1.03
- relative viability (HARA; first compound 0.3162 µM): 0.801
- relative viability (HARA; first compound 1 µM): 0.685
- relative viability (LXF-289; first compound 0.01 µM): 1.07
- relative viability (LXF-289; first compound 0.03162 µM): 1.06
- relative viability (LXF-289; first compound 0.1 µM): 1.19
- relative viability (LXF-289; first compound 0.3162 µM): 1.02
- relative viability (LXF-289; first compound 1 µM): 0.971
- relative viability (NCI-H322M; first compound 0.01 µM): 0.822
- relative viability (NCI-H322M; first compound 0.03162 µM): 0.782
- relative viability (NCI-H322M; first compound 0.1 µM): 0.77
- relative viability (NCI-H322M; first compound 0.3162 µM): 1.02
- relative viability (NCI-H322M; first compound 1 µM): 0.75
- relative viability (NCI-H3122; first compound 0.01 µM): 0.941
- relative viability (NCI-H3122; first compound 0.03162 µM): 0.877
- relative viability (NCI-H3122; first compound 0.1 µM): 0.906
- relative viability (NCI-H3122; first compound 0.3162 µM): 0.931
- relative viability (NCI-H3122; first compound 1 µM): 0.824
- relative viability (ABC-1; first compound 0.01 µM): 1.2
- relative viability (ABC-1; first compound 0.03162 µM): 0.997
- relative viability (ABC-1; first compound 0.1 µM): 1.06
- relative viability (ABC-1; first compound 0.3162 µM): 1.47
- relative viability (ABC-1; first compound 1 µM): 1.13
- relative viability (SK-MES-1; first compound 0.01 µM): 1.12
- relative viability (SK-MES-1; first compound 0.03162 µM): 0.934
- relative viability (SK-MES-1; first compound 0.1 µM): 0.877
- relative viability (SK-MES-1; first compound 0.3162 µM): 1.03
- relative viability (SK-MES-1; first compound 1 µM): 0.849
- relative viability (NCI-H727; first compound 0.01 µM): 0.586
- relative viability (NCI-H727; first compound 0.03162 µM): 0.449
- relative viability (NCI-H727; first compound 0.1 µM): 0.678
- relative viability (NCI-H727; first compound 0.3162 µM): 0.579
- relative viability (NCI-H727; first compound 1 µM): 0.543
- relative viability (NCI-H1993; first compound 0.01 µM): 0.635
- relative viability (NCI-H1993; first compound 0.03162 µM): 0.707
- relative viability (NCI-H1993; first compound 0.1 µM): 0.691
- relative viability (NCI-H1993; first compound 0.3162 µM): 0.677
- relative viability (NCI-H1993; first compound 1 µM): 0.672
- relative viability (SW 1573; first compound 0.01 µM): 0.727
- relative viability (SW 1573; first compound 0.03162 µM): 0.874
- relative viability (SW 1573; first compound 0.1 µM): 0.929
- relative viability (SW 1573; first compound 0.3162 µM): 0.796
- relative viability (SW 1573; first compound 1 µM): 0.782
